Reference: patent publication US20260174741A1, “METHODS OF REDUCING MIRO1 OR PHOSPHORYLATED ALPHA-SYNUCLEIN” (Acurex Biosciences Corporation, priority 2022, published 2026)
Read-outs that look alike come from different tables or passages of the source.

How the values were obtained:
[1] = test system: tyrosine-hydroxylase positive (TH+) dopaminergic neurons; test: Rat primary midbrain neuron co-culture, alpha-synuclein oligomer challenge with co-dosed/pre-treated compound: TH+ neuron count and neurite length; format: cell-based; conditions: for EC50: Rattus norvegicus, Neuron; for TH+ neurite length / TH+ neuron count: absence of any neuronal challenge; for dopamine neuron survival / dopamine neuron neurite length: dose-response experiment; for dopamine neuron survival: alpha-synuclein oligomer challenge (FIG. 2A, 5A); for dopamine neuron neurite length: alpha-synuclein oligomer challenge (FIG. 2B, 5B); for TH+ dopaminergic neuron neurite length / TH-positive dopaminergic neuron viability: immunocytochemistry, alpha-synuclein oligomers 500 nM, 96 hours
Experimental: (§1) The neuronal challenge was alpha-synuclein oligomers.
(§2) After incubation with alpha-synuclein (α-syn) oligomer, cells were fixed by a solution of 4% paraformaldehyde for 20 min at room temperature, the control conditions were fixed as well following the same procedure. The cells were then permeabilized and non-specific sites were blocked with a solution of phosphate buffered saline containing (PBS) with saponin and FCS for 15 min at room temperature. Cells were incubated with a chicken Anti-Tyrosine Hydroxylase antibody (TH, Abcam, ref 76442), a mouse monoclonal Anti-α-syn P129 antibody (Abcam, ref ab184674) and a Rabbit polyclonal Anti-Miro1 antibody (Sigma, ref: HPA010687) in PBS with saponin and FCS overnight at 4° C. […] Nuclei of cells were labelled by a fluorescent marker (Hoechst solution) in the same solution.
(§3) For each well of culture, pictures were taken using InCell Analyzer™ 2200 (GE Healthcare) with 20× magnification. All the images were taken in the same conditions. The number of dopaminergic neurons (TH), the neurite length of dopaminergic neurons, the signal of phosphorylated 129 of α-syn in dopaminergic neurons and the signal of Miro1 in dopaminergic neurons were automatically evaluated with Developer system analysis (GE Healthcare). All values were expressed as mean±standard error of the mean. Statistical analyses were done on the different conditions (ANOVA followed by Dunnett's test).
(§4) In an initial study, rat primary midbrain neuron co-cultures were incubated with alpha-synuclein oligomer alone, with 400 nM Compound 1, or with positive control.
(§5) Immunocytochemistry was performed for DAPI (nuclear dye), Tyrosine Hydroxylase (TH, a marker for dopaminergic neurons), and phospho-Serine129 alpha-synuclein (pS129 α-syn, a pathogenic form of alpha-synuclein found in Lewy Body pathology) in primary rat midbrain neuron co-cultures. In naive untreated neuronal cultures, healthy TH-positive dopaminergic neurons with elaborate neurites were observed and there was very low pS129 α-synbackground signal. When these neuronal cultures were stressed with toxic exogenous alpha-synuclein oligomers (500 nM, 96 hours), there was a large and statistically significant (1) loss of TH+dopaminergic neuron viability, (2) decrease of TH+dopaminergic neuron neurite length, (3) increase in pS129 α-syn-positive Lewy Body formation, and (4) increase in Miro1 protein levels.

[2] = test system: phosphorylated serine-129 (pS129) alpha-synuclein; test: Rat primary midbrain neuron co-culture, alpha-synuclein oligomer challenge with co-dosed/pre-treated compound: pS129 alpha-synuclein; format: cell-based; conditions: for IC50: Rattus norvegicus, Neuron, read-out: IC50 for lowering pathogenic pS129 alpha-synuclein; for number of pS129+ TH+ neurons: absence of any neuronal challenge; for levels of pathogenic pS129 alpha-synuclein: dose-response experiment, alpha-synuclein oligomer challenge (FIG. 3A, 6A); for pS129 alpha-syn-positive Lewy Body formation / pS129 alpha-syn-positive Lewy Body formation in TH-negative non-dopaminergic neurons: immunocytochemistry; for pS129 alpha-syn-positive Lewy Body formation: alpha-synuclein oligomers 500 nM, 96 hours; for pS129 alpha-syn-positive Lewy Body formation in TH-negative non-dopaminergic neurons: alpha-synuclein oligomers
Experimental: as §1, §2, §3, §4, §5

[3] = test system: Miro1; test: Rat primary midbrain neuron co-culture, alpha-synuclein oligomer challenge with co-dosed/pre-treated compound: Miro1 levels; format: cell-based; conditions: for Miro1 levels: absence of any neuronal challenge; for rescue of Miro1 elevation due to alpha-synuclein oligomer challenge: dose-response experiment (FIG. 3B, 6B); for Miro1 protein levels: immunocytochemistry, alpha-synuclein oligomers 500 nM, 96 hours; for Miro1 release: initial study
Experimental: as §1, §2, §3, §4, §5

[4] = test system: TH+ neurite length of rat dopaminergic neurons; test: Interventional treatment of rat dopaminergic neurons after alpha-synuclein oligomer injury: TH+ neurite length; format: cell-based; conditions: interventional: 2 days alpha-syn oligomer, then 2 more days with compound
Experimental: (§6) Rat dopaminergic neurons were cultured as previously described (Schinelli, S. et al. Journal of Neurochemistry 1988, 50(6), pages 1900-1907). After 7 days of culture, cells were challenged with alpha-synuclein oligomer (500 nM) for 48 hours. […] By condition, N=6 wells were performed and one plate of 96 wells were performed.
(§7) After 4 days of incubation with α-syn oligomer, cells were fixed by a solution of 4% paraformaldehyde for 20 min at room temperature, the control conditions were fixed as well following the same procedure. The cells were then permeabilized and non-specific sites were blocked with a solution of phosphate buffered saline containing (PBS) with saponin and FCS for 15 min at room temperature. […]
as §3, with “All the images were taken in the same conditions.” left out, “Statistical analyses were done on the different conditions (ANOVA followed by Dunnett's test).” left out

[5] = test system: phosphorylated Ser129 alpha-synuclein; test: Interventional treatment of rat dopaminergic neurons after alpha-synuclein oligomer injury: phosphorylated Ser129-positive TH+ neurons; format: cell-based; conditions: interventional: 2 days alpha-syn oligomer 500 nM, then 2 more days with compound
Experimental: as §6, §7
as §3, with “All the images were taken in the same conditions.” left out, “Statistical analyses were done on the different conditions (ANOVA followed by Dunnett's test).” left out

[6] = test system: Miro1; test: Interventional treatment of rat dopaminergic neurons after alpha-synuclein oligomer injury: Miro1 levels in TH+ neurons; format: cell-based; conditions: 4 days total, doses from 123 nM to 10 μM, compared to no treatment (FIG. 9)
Experimental: Rat dopaminergic neurons were cultured as previously described (Schinelli, S. et al. Journal of Neurochemistry 1988, 50(6), pages 1900-1907). After 7 days of culture, cells were challenged with alpha-synuclein oligomer (500 nM) for 48 hours. Subsequent to the challenge, cells were subjected to alpha-synuclein (α-syn) oligomer (500 nM)+various concentrations of Compound 1 (0, 14, 41, 123, 370, 1100, 3300, and 10000 nM) for an additional 48 hours. By condition, N=6 wells were performed and one plate of 96 wells were performed.
as §7
as §3, with “All the images were taken in the same conditions.” left out, “Statistical analyses were done on the different conditions (ANOVA followed by Dunnett's test).” left out

[7] = test system: tyrosine-hydroxylase positive (TH+) dopaminergic neurons; test: Rat primary midbrain neuron co-culture, alpha-synuclein oligomer challenge with co-dosed/pre-treated compound: TH+ neuron count and neurite length; format: cell-based; conditions: initial study, 40 nM, incubated with alpha-synuclein oligomer (FIG. 4A)
[8] = test system: Parkinson's disease subject-derived fibroblast lines; test: Ferroptosis assay: human fibroblast survival assay with RSL3 challenge; format: cell-based; conditions: DAPI-positive nuclei count, read-out: EC50 for cell survival (ferroptosis inhibition)
Experimental: Human fibroblast survival assay. All fibroblasts were obtained from the National Institute of Neurological Disorders and Stroke (NINDS) cell line repository housed at Rutgers University. Compounds were tested in at least one of the following Parkinson's disease subject-derived fibroblast lines: Line ND29802 (LRRK2 G2019S mutation carrier), Line ND40996 (SNCA A53T mutation carrier), or Line ND34263 (GBA N370S mutation carrier).
Human fibroblasts were seeded into 96-well plates on Day 0. On Day 1, fibroblasts were challenged with RSL3 (a ferroptosis activator, CAS No. 1219810-16-8) alone or in co-treatment with test compound administered in dose response. On Day 2, fibroblasts were fixed and stained by the nuclear stain 4′, 6-diamidino-2-phenylindole (DAPI), and the number of DAPI-positive nuclei were counted for each condition using the Yokogawa CQ1 imaging platform to quantify the EC50 for cell survival.

[9] = test system: phosphorylated serine-129 (pS129) alpha-synuclein; test: Rat primary midbrain neuron co-culture, alpha-synuclein oligomer challenge with co-dosed/pre-treated compound: pS129 alpha-synuclein; format: cell-based; conditions: initial study, 40 nM, incubated with alpha-synuclein oligomer (FIG. 4C)
[10] = test system: ferroptosis; conditions: described in Example 2 of PCT/US23/73312 as Compound 4; read-out: ferroptosis inhibitor EC50; cited from earlier work

SMILES: C[C@@H](NC(=O)Cc1ccc(C(F)(F)F)cc1)c1cc2cnn(CC(F)(F)F)c2cn1 [Compound 1, (R)—N-(1-(1-(2,2,2-trifluoroethyl)-1H-pyrazolo[3,4-c]pyridin-5-yl)ethyl)-2-(4-(trifluoromethyl)phenyl)acetamide]
- EC50 ([1]; alpha-synuclein oligomer challenge, read-out: EC50 for rescue of TH-positive neurite length): < 150 nM
- EC50 ([1]; alpha-synuclein oligomer challenge, read-out: EC50 for rescue of TH-positive neuron viability): ~250 nM
- TH+ neurite length [1]: did not affect
- TH+ neuron count [1]: did not affect
- dopamine neuron survival [1]: rescued dopamine neuron survival in a dose-dependent fashion
- dopamine neuron neurite length [1]: rescued dopamine neuron neurite length in a dose-dependent fashion
- TH+ dopaminergic neuron neurite length ([1]; pre-treated 400 nM): rescue of TH+dopaminergic neuron neurite length
- TH-positive dopaminergic neuron viability ([1]; pre-treated 400 nM): rescue of TH-positive dopaminergic neuron viability
- TH+ neuronal loss induced by alpha-synuclein oligomer ([1]; initial study, 400 nM, incubated with alpha-synuclein oligomer (FIG. 1A)): prevented TH+ neuronal loss
- IC50 ([2]; alpha-synuclein oligomer challenge): < 125 nM
- number of pS129+ TH+ neurons [2]: did not affect
- levels of pathogenic pS129 alpha-synuclein [2]: lowered levels of pathogenic pS129 α-synin a dose-dependent fashion
- pS129 alpha-syn-positive Lewy Body formation ([2]; pre-treated 400 nM): decrease/prevention in pS129 α-syn-positive Lewy Body formation
- pS129 alpha-syn-positive Lewy Body formation in TH-negative non-dopaminergic neurons ([2]; pre-treatment 1.1 uM): robust decrease/prevention
- pathogenic phosphorylated serine-129 (pS129) alpha-synuclein levels ([2]; initial study, 400 nM, incubated with alpha-synuclein oligomer (FIG. 1C)): reduction of pathogenic phosphorylated serine-129 (pS129) alpha-synuclein levels
- Miro1 levels [3]: did not affect
- rescue of Miro1 elevation due to alpha-synuclein oligomer challenge [3]: did not reach statistical significance
- Miro1 protein levels ([3]; pre-treated 400 nM): decrease in Miro1 protein levels
- Miro1 release ([3]; 400 nM, incubated with alpha-synuclein oligomer (FIG. 1B)): statistically significant rescue of Miro1 release
- TH+ neurite length ([4]; doses of 370 nM, 3.3 µM, or 10 µM, compared to no treatment (FIG. 8B)): significantly restored
- levels of phosphorylated Ser129-positive TH+ neurons ([5]; doses from 370 nM to 10 μM, compared to no treatment (FIG. 7B)): significantly reduced
- Miro1 levels in TH+ neurons [6]: statistically significantly reduced
- TH+ neuronal loss induced by alpha-synuclein oligomer [7]: prevented TH+ neuronal loss

SMILES: CCN1CCN(c2ccc3nc4ccc(=O)cc-4sc3c2)CC1 [Compound 5, 7-(4-ethylpiperazin-1-yl)-3H-phenothiazin-3-one]
- EC50 ([1]; read-out: EC50 for rescue of TH-positive neurite length): < 0.4 nM
- EC50 ([1]; read-out: EC50 for rescue of TH-positive neuron viability): ~7 nM
- TH+ neurite length [1]: did not affect
- TH+ neuron count [1]: did not affect
- dopamine neuron survival [1]: rescued dopamine neuron survival in a dose-dependent fashion
- dopamine neuron neurite length [1]: rescued dopamine neuron neurite length in a dose-dependent fashion
- TH+ dopaminergic neuron neurite length ([1]; pre-treated 40 nM): rescue of TH+dopaminergic neuron neurite length
- TH-positive dopaminergic neuron viability ([1]; pre-treated 40 nM): rescue of TH-positive dopaminergic neuron viability
- IC50 [2]: < 0.4 nM
- number of pS129+ TH+ neurons [2]: did not affect
- levels of pathogenic pS129 alpha-synuclein [2]: lowered levels of pathogenic pS129 α-synin a dose-dependent fashion
- pS129 alpha-syn-positive Lewy Body formation ([2]; pre-treated 40 nM): decrease/prevention in pS129 α-syn-positive Lewy Body formation
- pS129 alpha-syn-positive Lewy Body formation in TH-negative non-dopaminergic neurons ([2]; pre-treatment 3.7 nM): robust decrease/prevention
- Miro1 levels [3]: did not affect
- rescue of Miro1 elevation due to alpha-synuclein oligomer challenge [3]: did not reach statistical significance
- Miro1 protein levels ([3]; pre-treated 40 nM): decrease in Miro1 protein levels
- Miro1 release ([3]; 40 nM, incubated with alpha-synuclein oligomer (FIG. 4B)): statistically significant rescue of Miro1 release
- EC50 [8]: 3.6 nM
- pathogenic phosphorylated serine-129 (pS129) alpha-synuclein levels [9]: reduction of pathogenic phosphorylated serine-129 (pS129) alpha-synuclein levels

SMILES: CC(C)N1[C@@H]2CC[C@H]1CN(c1ccc3nc4ccc(=O)cc-4sc3c1)C2 [Compound 9]
- TH+ neurite length ([4]; doses of 11 nM, 33 nM, or 100 nM, compared to no treatment (FIG. 11B)): significantly restored
- levels of phosphorylated Ser129-positive TH+ neurons ([5]; doses of 11 nM, 33 nM, or 100 nM, compared to no treatment (FIG. 10B)): significantly reduced
- EC50 [10]: 2.9 nM
